Where two headings read alike, the source gives them in different places.
Columns and labels:
[1] = rcm bond, 14-membered ring, 1,2-dichloroethane
HCV NS3/4A protease = HCV NS3/4A protease (Hepatitis C virus genotype 1a (isolate H77) (HCV), UniProt P27958); assay: Inhibition assay (enzymatic assay) of full-length NS3 protease with NS4A cofactor; type: biochemical; conditions: full-length NS3 protease 1 nM, 25 μM NS4A cofactor, depsipeptide substrate, competitive inhibition model; read-out: Ki (μM) Enzymatic assay
Chain of HCV NS3/4A protease (P27958 1027-1657): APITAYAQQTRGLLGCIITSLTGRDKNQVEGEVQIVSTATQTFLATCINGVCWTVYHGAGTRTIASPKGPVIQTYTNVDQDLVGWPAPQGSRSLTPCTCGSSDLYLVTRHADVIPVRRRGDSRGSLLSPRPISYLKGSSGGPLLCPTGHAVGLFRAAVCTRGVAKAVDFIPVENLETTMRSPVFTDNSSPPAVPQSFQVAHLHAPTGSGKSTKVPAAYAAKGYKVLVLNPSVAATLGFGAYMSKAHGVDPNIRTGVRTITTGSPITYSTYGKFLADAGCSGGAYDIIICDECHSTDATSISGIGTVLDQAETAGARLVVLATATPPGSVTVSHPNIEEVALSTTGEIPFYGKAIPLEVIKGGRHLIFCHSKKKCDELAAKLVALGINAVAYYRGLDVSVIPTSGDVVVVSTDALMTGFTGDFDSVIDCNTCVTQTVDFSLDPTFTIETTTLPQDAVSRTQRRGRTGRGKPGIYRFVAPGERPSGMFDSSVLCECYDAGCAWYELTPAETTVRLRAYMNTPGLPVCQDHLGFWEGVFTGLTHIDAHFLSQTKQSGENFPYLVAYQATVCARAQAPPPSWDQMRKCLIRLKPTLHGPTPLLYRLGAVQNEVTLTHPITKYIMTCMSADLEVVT
Description: [Landro, 1997 #Biochem 36 9340-9348]. […] The solutions were stored at −20° C. between measurements.
[Liu, 1999 Analytical Biochemistry 267 331-335].

[2] = test system: HCV type 1b replicon in Huh-7 luc/neo (Huh-Luc) cells; assay: Replicon assay: inhibition of HCV RNA replication in Huh-Luc cells (luciferase); type: cell-based; conditions: luciferase activity, incubation of three days
Description: The in vitro antiviral activity against HCV of the compounds of formula (I) was tested in a cellular HCV replicon system based on Lohmann et al. (1999) Science 285:110-113, with the further modifications described by Krieger et al. (2001) Journal of Virology 75: 4614-4624, which is further exemplified in the examples section. This model, while not a complete infection model for HCV, is widely accepted as the most robust and efficient model of autonomous HCV RNA replication currently available. […] It will be appreciated that it is important to distinguish between compounds that specifically interfere with HCV functions from those that exert cytotoxic or cytostatic effects in the HCV replicon model, and as a consequence cause a decrease in HCV RNA or linked reporter enzyme concentration. Assays are known in the field for the evaluation of cellular cytotoxicity based for example on the activity of mitochondrial enzymes using fluorogenic redox dyes such as resazurin. Furthermore, cellular counter screens exist for the evaluation of non-selective inhibition of linked reporter gene activity, such as firefly luciferase. Appropriate cell types can be equipped by stable transfection with a luciferase reporter gene whose expression is dependent on a constitutively active gene promoter, and such cells can be used as a counter-screen to eliminate non-selective inhibitors.
The compounds of formula (I) were examined for activity in the inhibition of HCV RNA replication in a cellular assay. […] The cellular assay was based on a bicistronic expression construct, as described by Lohmann et al. (1999) Science vol. 285 pp. 110-113 with modifications described by Krieger et al. (2001) Journal of Virology 75: 4614-4624, in a multi-target screening strategy. In essence, the method was as follows.
The assay utilized the stably transfected cell line Huh-7 luc/neo (hereafter referred to as Huh-Luc). This cell line harbors an RNA encoding a bicistronic expression construct comprising the wild type NS3-NS5B regions of HCV type 1b translated from an Internal Ribosome Entry Site (IRES) from encephalomyocarditis virus (EMCV), preceded by a reporter portion (FfL-luciferase), and a selectable marker portion (neo^R, neomycine phosphotransferase). The construct is bordered by 5′ and 3′ NTRs (non-translated regions) from HCV type 1b. Continued culture of the replicon cells in the presence of G418 (neo^R) is dependent on the replication of the HCV RNA. The stably transfected replicon cells that express HCV RNA, which replicates autonomously and to high levels, encoding inter alia luciferase, are used for screening the antiviral compounds.
The replicon cells were plated in 384 well plates in the presence of the test and control compounds which were added in various concentrations. Following an incubation of three days, HCV replication was measured by assaying luciferase activity (using standard luciferase assay substrates and reagents and a Perkin Elmer ViewLux™ ultraHTS microplate imager). Replicon cells in the control cultures have high luciferase expression in the absence of any inhibitor. The inhibitory activity of the compound on luciferase activity was monitored on the Huh-Luc cells, enabling a dose-response curve for each test compound.

Molecule | Ki (HCV NS3/4A protease) [nM] | EC50 ([2]; Hepatitis C virus, Huh-7, 72 h) [µM] | other results
CCOC(=O)C12CC1C=CCCCCN(C)C(=O)C1CC(Oc3cc(-c4cccc(C(C)C)n4)nc4c(C)c(OC)ccc34)CC1C(=O)N2 (centres unmarked) | – | – | ring closure, isolated yield ([1]; from C=CCCCCN(C)C(=O)C1CC(Oc2cc(-c3cccc(C(C)C)n3)nc3c(C)c(OC)ccc23)CC1C(=O)NC1(C(=O)OCC)CC1C=C, Hoveyda-Grubbs I (3 portions), 17.0 h): 66%
CCOC(=O)C12CC1C=CCCCCN(C)C(=O)C1CC(Oc3cc(-c4cccc(C)n4)nc4c(C)c(OC)ccc34)CC1C(=O)N2 (centres unmarked) | – | – | ring closure, isolated yield ([1]; from C=CCCCCN(C)C(=O)C1CC(Oc2cc(-c3cccc(C)n3)nc3c(C)c(OC)ccc23)CC1C(=O)NC1(C(=O)OCC)CC1C=C, Hoveyda-Grubbs II, 1.48 mM, 16.0 h): 58%
COc1ccc2c(O[C@@H]3C[C@H]4C(=O)N[C@]5(C(=O)NS(=O)(=O)C6CC6)C[C@H]5/C=C\CCCCCNC(=O)N4C3)cc(-c3nc(C(C)C)cs3)nc2c1C (stereo in doubt) [Compound 91, N-[[18-[2-[4-(isopropyl)thiazol-2-yl]-7-methoxy-8-methylquinolin-4-yloxy]-2,15-dioxo-3,14,16-triazatricyclo[14.3.0.0^4,6]nonadec-7-en-4-yl]carbonyl]-(cyclopropyl)sulfonamide] | 0.05 | 0.00854 | –
COc1ccc2c(O[C@@H]3C[C@H]4C(=O)N[C@]5(C(=O)NS(=O)(=O)C6CC6)C[C@H]5/C=C\CCCCCNC(=O)N4C3)cc(-c3nc(C(C)C)cs3)nc2c1Cl (stereo in doubt) [Compound 94, N-[[18-[8-chloro-2-[4-(isopropyl)thiazol-2-yl]-7-methoxyquinolin-4-yloxy]-2,15-dioxo-3,14,16-triazatricyclo[14.3.0.0^4,6]nonadec-7-en-4-yl]carbonyl]-(cyclopropyl)sulfonamide] | 0.1 | 0.00326 | –
COc1ccc2c(O[C@@H]3C[C@H]4C(=O)N[C@]5(C(=O)NS(=O)(=O)C6(C)CC6)C[C@H]5/C=C\CCCCCNC(=O)N4C3)cc(-c3nc(C(C)C)cs3)nc2c1Cl (stereo in doubt) [Compound 95, N-[[18-[8-chloro-2-[4-(isopropyl)thiazol-2-yl]-7-methoxyquinolin-4-yloxy]-2,15-dioxo-3,14,16-triazatricyclo[14.3.0.0^4,6]nonadec-7-en-4-yl]carbonyl](1-methylcyclopropyl)sulfonamide] | 0.1 | 0.00404 | –
COc1ccc2c(O[C@@H]3C[C@H]4C(=O)N[C@]5(C(=O)O)C[C@H]5/C=C\CCCCN(C)C(=O)[C@@H]4C3)cc(-c3nccs3)nc2c1C [Compound 29, 17-[7-methoxy-8-methyl-2-(thiazol-2-yl)quinolin-4-yloxy]-13-methyl-2,14-dioxo-3,13-diazatricyclo[13.3.0.0^4,6]octadec-7-ene-4-carboxylic acid] | – | 10 | –
COc1ccc2c(O[C@@H]3C[C@H]4C(=O)N[C@]5(C(=O)O)C[C@H]5/C=C\CCCCN(C)C(=O)[C@@H]4C3)cc(-c3nc(C(C)C)cs3)nc2c1C [Compound 46, 17-[2-(4-isopropylthiazole-2-yl)-7-methoxy-8-methyl-quinolin-4-yloxy]-13-methyl-2,14-dioxo-3,13-diazatricyclo[13.3.0.0^4,6]octadec-7-ene-4-carboxylic acid] | – | 0.91 | –
COc1ccc2c(O[C@@H]3C[C@H]4C(=O)N[C@]5(C(=O)NS(=O)(=O)C6(C)CC6)C[C@H]5/C=C\CCCCN(C)C(=O)[C@@H]4C3)cc(-c3nc(C(C)C)cs3)nc2c1C [Compound 48, N-[17-[2-(4-isopropylthiazole-2-yl)-7-methoxy-8-methylquinolin-4-yloxy]-13-methyl-2,14-dioxo-3,13-diazatricyclo[13.3.0.0^4,6]octadec-7-ene-4-carbonyl](1-methylcyclopropyl)sulfonamide] | 0.25 | 0.00233 | –
COc1ccc2c(O[C@@H]3C[C@H]4C(=O)N[C@]5(C(=O)O)C[C@H]5/C=C\CCCCN(C)C(=O)[C@@H]4C3)cc(-c3nc(C(C)C)cs3)nc2c1Cl [Compound 55, 17-[8-chloro-2-(4-isopropylthiazole-2-yl)-7-methoxyquinolin-4-yloxy]-13-methyl-2,14-dioxo-3,13-diazatricyclo[13.3.0.0^4,6]octadec-7-ene-4-carboxylic acid] | 5 | 0.367 | –
COc1ccc2c(O[C@@H]3C[C@H]4C(=O)N[C@]5(C(=O)NS(=O)(=O)C6CC6)C[C@H]5/C=C\CCCCN(C)C(=O)[C@@H]4C3)cc(-c3nc(C(C)C)cs3)nc2c1Cl [Compound 56, N-[17-[8-chloro-2-(4-isopropylthiazole-2-yl)-7-methoxyquinolin-4-yloxy]-13-methyl-2,14-dioxo-3,13-diazatricyclo[13.3.0.0^4,6]-octadec-7-ene-4-carbonyl](cyclopropyl)sulfonamide] | – | 0.00293 | –
COc1ccc2c(O[C@@H]3C[C@H]4C(=O)N[C@]5(C(=O)NS(=O)(=O)C6(C)CC6)C[C@H]5/C=C\CCCCN(C)C(=O)[C@@H]4C3)cc(-c3nc(C(C)C)cs3)nc2c1Cl [Compound 57, N-[17-[8-chloro-2-(4-isopropylthiazole-2-yl)-7-methoxy-quinolin-4-yloxy]-13-methyl-2,14-dioxo-3,13-diazatricyclo[13.3.0.0^4,6]octadec-7-ene-4-carbonyl] (1-methylcyclopropyl)sulfonamide] | 0.3 | 0.00187 | –
COc1ccc2c(O[C@@H]3C[C@H]4C(=O)N[C@]5(C(=O)NS(=O)(=O)C6CC6)C[C@H]5/C=C\CCCCN(C)C(=O)[C@@H]4C3)cc(-n3ccc(C(C)C)n3)nc2c1C [Compound 66, N-[17-[2-(3-isopropylpyrazol-1-yl)-7-methoxy-8-methyl-quinolin-4-yloxy]-13-methyl-2,14-dioxo-3,13-diazatricyclo[13.3.0.0^4,6]octadec-7-ene-4-carbonyl](cyclopropyl)sulfonamide] | – | 0.0036 | –
CCc1c(OC)ccc2c(O[C@@H]3C[C@H]4C(=O)N[C@]5(C(=O)NS(=O)(=O)C6CC6)C[C@H]5/C=C\CCCCN(C)C(=O)[C@@H]4C3)cc(-c3nc(C(C)C)cs3)nc12 [Compound 72] | – | 0.066 | –
COc1ccc2c(O[C@@H]3C[C@H]4C(=O)N[C@]5(C(=O)NS(=O)(=O)C6CC6)C[C@H]5/C=C\CCCCN(C)C(=O)[C@@H]4C3)cc(-c3nc(C(C)C)cs3)nc2c1F [Compound 75] | – | 0.0575 | –
COc1ccc2c(O[C@H]3C[C@H]4C(=O)NCCCCC/C=C\[C@@H]5C[C@@]5(C(=O)NS(=O)(=O)C5CC5)NC(=O)[C@@H]4C3)cc(-c3nc(C(C)C)cs3)nc2c1C [Compound 82] | 9.4 | 8.32 | –
COc1ccc2c(O[C@@H]3C[C@H]4C(=O)N[C@]5(C(=O)NS(=O)(=O)C6CC6)C[C@H]5/C=C\CCCCN(C)C(=O)[C@@H]4C3)cc(-c3cccc(C)n3)nc2c1C [Compound 103, Cyclopropanesulfonic acid {17-[2-(6-methyl-2-pyridyl)-7-methoxy-8-methyl-quinolin-4-yloxy]-13-methyl-2,14-dioxo-3,13-diaza-tricyclo[13.3.0.0^4,6]octadec-7-ene-4-carbonyl}-amide] | – | 0.0063 | –
N-[17-[8-ethyl-2-(4-isopropylthiazole-2-yl)-7-methoxyquinolin-4-yloxy]-13-methyl-2,14-dioxo-3,13-diazatricyclo[13.3.0.0^4,6]octadec-7-ene-4-carbonyl](cyclo-propyl)sulfonamide [Compound 71] | – | – | EC50 [2]: 10 µM
N-[18-[2-(4-isopropylthiazole-2-yl)-7-methoxy-8-methylquinolin-4-yl-oxy]-2,15-dioxo-3,14-diazatricyclo[14.3.0.0^4,6]nonadec-7-ene-4-carbonyl](cyclo-propyl)sulfonamide [Compound 81] | 1000 | – | EC50 [2]: 10 µM

From patent US8741926B2, “Macrocyclic inhibitors of hepatitis C virus” (Tibotec Pharmaceuticals Ltd., priority 2005, dated 2014)
